In series [1] the target is Mitogen-activated protein kinase 14 (Homo sapiens, UniProt Q16539). Kind of series: Inhibition of p38alpha.
The species entered for series [2] is Homo sapiens. Kind of series: Inhibition of LPS-induced TNFalpha production in human whole blood. The series is classed as functional, organism-based.
The test system of series [3] is Monocyte. Kind of series: Inhibition of LPS-induced TNFalpha production in human monocytes. Format: functional, cell-based.
The nature of series [4]: Hepatocyte microsomal extraction ratio in human. To be noted: hepatic microsomes.
A short description of series [5]: Hepatocyte extraction ratio in human. The series is classed as ADME, cell-based. The note with it: hepatocytes.

The text below walks through data of ChEMBL document CHEMBL1145312, “Structure-activity relationships of triazolopyridine oxazole p38 inhibitors: identification of candidates for clinical development” (Bioorg Med Chem Lett, 2006).

Molecules are shown by their SMILES. pIC50: −log10 of the molar value.

Sequence of Mitogen-activated protein kinase 14 (Q16539 whole entry): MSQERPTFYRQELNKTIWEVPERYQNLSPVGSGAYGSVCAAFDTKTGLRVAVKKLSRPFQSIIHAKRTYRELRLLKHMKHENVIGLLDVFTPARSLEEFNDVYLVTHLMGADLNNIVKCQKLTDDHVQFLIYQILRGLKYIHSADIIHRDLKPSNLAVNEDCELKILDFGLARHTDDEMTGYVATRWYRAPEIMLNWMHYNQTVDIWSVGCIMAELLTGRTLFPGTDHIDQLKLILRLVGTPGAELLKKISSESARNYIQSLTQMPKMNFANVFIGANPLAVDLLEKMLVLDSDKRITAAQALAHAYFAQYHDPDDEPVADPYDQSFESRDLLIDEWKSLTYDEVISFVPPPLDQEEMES

In the case of `CC(C)c1nnc2ccc(-c3ocnc3-c3c(F)cc(F)cc3F)cn12`, the pIC50 in series [1] is 8.14; in series [2], 6.19; in series [3] it was 7.22. Moreover, the hepatic extraction ratio in series [4] is less than 0.3.
As to `CC(C)c1nnc2ccc(-c3ocnc3-c3ccc(Cl)c(Cl)c3)cn12`, the pIC50 is 7.58 in series [1] and 6.83 in series [3].
`CC(C)c1nnc2ccc(-c3ocnc3-c3ccc(Cl)cc3Cl)cn12`: the negative logarithm of the IC50 (pIC50) is 8.08 in series [1] and 7.52 in series [3]. In series [4], the hepatic extraction ratio was less than 0.3.
As to `Fc1ccc(-c2ncoc2-c2ccc3nnc(C4CCC4)n3c2)cc1`, the hepatic extraction ratio in series [5] is greater than 0.5. Also, the figures for the pIC50 in series [1] and in series [3] were 7.75 and 7.31, respectively.
For `CCNc1nnc2ccc(-c3ocnc3-c3ccccc3)cn12`, the hepatic extraction ratio in series [5] was greater than 0.5. Moreover, the negative-log IC50 (pIC50) in series [1] was 8.27; in series [2] it was 5.77; in series [3], 7.40.
On to `CCN(C)c1nnc2ccc(-c3ocnc3-c3ccc(F)cc3)cn12`, for which the values for the pIC50 in series [1], in series [2] and in series [3] were 8.33, 5.81 and 7.46, respectively.
For the compound `CC(C)c1nnc2ccc(-c3ocnc3-c3c(F)cccc3F)cn12`, the pIC50 is 7.84 in series [1] and 7.15 in series [3]. In series [4], the hepatic extraction ratio is less than 0.3.
Consider `CC(C)c1nnc2ccc(-c3ocnc3-c3cc(Cl)ccc3F)cn12`, for which the pIC50 was 8.29 in series [1], 6.72 in series [2] and 8.00 in series [3].
For `CC(C)c1nnc2ccc(-c3ocnc3-c3ccccc3Cl)cn12`, in that order: 8.52, 6.03 and 7.24.
For `Fc1cc(F)c(-c2ncoc2-c2ccc3nnc(C4CC4)n3c2)cc1F`, the pIC50 in series [1] was 8.11; in series [2], 6.25; in series [3], 7.40. In addition, the hepatic extraction ratio in series [4] is less than 0.3.
For `CC(C)Cc1nnc2ccc(-c3ocnc3-c3ccc(F)cc3)cn12`, the pIC50 in series [1] was 8.06; in series [3] it was 7.15.
As to `CC(C)(C)c1nnc2ccc(-c3ocnc3-c3cc(F)ccc3F)cn12`, the pIC50 is 8.06 in series [1], 6.66 in series [2] and 7.85 in series [3]. For the same compound, in series [4], the hepatic extraction ratio was less than 0.3.
`FC(F)(F)Cc1nnc2ccc(-c3ocnc3-c3ccccc3)cn12`: in series [5], the hepatic extraction ratio was greater than 0.5. Moreover, the negative-log IC50 (pIC50) is 7.08 in series [1] and 6.04 in series [3].
As to `CC(C)Nc1nnc2ccc(-c3ocnc3-c3ccc(F)cc3)cn12`, the pIC50 was 8.26 in series [1] and 7.50 in series [3].
On to `Fc1ccc(-c2ncoc2-c2ccc3nnc(C4CC4)n3c2)c(F)c1`, for which the negative-log IC50 (pIC50) in series [1] was 8.46; in series [2], 6.04; in series [3], 7.34.
`Fc1ccc(-c2ncoc2-c2ccc3nnc(N4CCOCC4)n3c2)cc1`: the pIC50 in series [1] was 7.93; in series [3], 5.84. In addition, in series [4], the hepatic extraction ratio was less than 0.3.
`FC(F)c1nnc2ccc(-c3ocnc3-c3ccccc3)cn12`: the pIC50 in series [1] was 6.26.
Take `CC1(c2nnc3ccc(-c4ocnc4-c4cc(F)c(F)cc4F)cn23)CCC1`: the pIC50 in series [1] is 8.60; in series [2] it was 7.05; in series [3], 8.00.
Consider `Cc1ccc(F)c(-c2ncoc2-c2ccc3nnc(C(C)C)n3c2)c1`, for which the hepatic extraction ratio in series [5] was greater than 0.5. Further, the pIC50 is 8.37 in series [1] and 8.00 in series [3].
On to `CC(C)c1nnc2ccc(-c3ocnc3-c3cc(F)c(F)c(F)c3)cn12`, for which the pIC50 was 8.39 in series [1] and 6.32 in series [3]. In series [4], the hepatic extraction ratio is less than 0.3.
Regarding `CC(C)Oc1nnc2ccc(-c3ocnc3-c3ccc(F)cc3)cn12`, the pIC50 in series [1] was 7.75; in series [3] it was 6.33.
The matching figures for `c1ccc(-c2ncoc2-c2ccc3nnc(-c4ccno4)n3c2)cc1`: 6.55 and less than 5.70.
For `CCc1nnc2ccc(-c3ocnc3-c3ccc(F)cc3)cn12`, in that order: 7.67 and 6.20.
In the case of `CC(C)c1nnc2ccc(-c3ocnc3-c3cc(F)c(F)cc3Cl)cn12`, the negative logarithm of the IC50 (pIC50) in series [1] was 8.25; in series [3] it was 7.26. In addition, the hepatic extraction ratio in series [4] was less than 0.3.
Regarding `Fc1ccc(F)c(-c2ncoc2-c2ccc3nnc(C4CC4)n3c2)c1`, the pIC50 in series [1] was 7.62; in series [2], 5.85; in series [3] it was 7.50. In addition, in series [4], the hepatic extraction ratio was less than 0.3.
Turning to `Fc1ccc(F)c(-c2ncoc2-c2ccc3nnc(C4CCC4)n3c2)c1`, the results for the negative logarithm of the IC50 (pIC50) in series [1] and in series [3] were 8.01 and 7.22, respectively.
Regarding `CCc1nnc2ccc(-c3ocnc3-c3ccccc3)cn12`, the hepatic extraction ratio in series [5] is greater than 0.5. In addition, the pIC50 in series [1] is 7.26; in series [3], 6.17.
Consider `Cc1cc(-c2ncoc2-c2ccc3nnc(C(C)C)n3c2)ccc1F`, for which, in series [5], the hepatic extraction ratio was greater than 0.5. Also, the pIC50 is 8.18 in series [1], 6.59 in series [2] and 7.94 in series [3].
For the compound `CC1(c2nnc3ccc(-c4ocnc4-c4cc(F)c(F)cc4F)cn23)CC1`, the negative logarithm of the IC50 (pIC50) in series [1] was 8.64; in series [2], 6.58; in series [3], 7.55. In series [4], the hepatic extraction ratio is less than 0.3.
For the compound `Fc1ccc(-c2ncoc2-c2ccc3nnc(Cc4ccccc4)n3c2)cc1`, the negative logarithm of the IC50 (pIC50) was 7.70 in series [1] and less than 6.00 in series [3].
As to `CC1(c2nnc3ccc(-c4ocnc4-c4cc(F)ccc4F)cn23)CC1`, the values for the pIC50 in series [1], in series [2] and in series [3] were 8.52, 6.41 and 7.34, respectively. Further, in series [4], the hepatic extraction ratio was less than 0.3.
Regarding `c1ccc(-c2ncoc2-c2ccc3nnc(C4CCC4)n3c2)cc1`, the figures for the pIC50 in series [1] and in series [3] were 7.78 and 7.16, respectively.
With `CC(C)(O)c1nnc2ccc(-c3ocnc3-c3cc(F)ccc3F)cn12`, the pIC50 in series [1] is 7.60; in series [2] it was 5.86; in series [3], 6.70.
For `Fc1cc(F)c(-c2ncoc2-c2ccc3nnc(C4CCC4)n3c2)cc1F`, in that order: 8.04, 6.45 and 7.30.
`CCN(C)c1nnc2ccc(-c3ocnc3-c3ccccc3)cn12`: in series [5], the hepatic extraction ratio was greater than 0.5. Besides, the pIC50 in series [1] is 8.04; in series [3], 7.10.
Turning to `Cc1cccc(-c2ncoc2-c2ccc3nnc(C(C)C)n3c2)c1`, the values for the negative logarithm of the IC50 (pIC50) in series [1] and in series [3] were 7.74 and 7.61, respectively.
The matching figures for `CC(C)c1nnc2ccc(-c3ocnc3-c3ccc(Cl)cc3)cn12`: 7.75 and 7.15.
Turning to `CC(C)c1nnc2ccc(-c3ocnc3-c3cccc(Cl)c3Cl)cn12`, the negative logarithm of the IC50 (pIC50) is 7.84 in series [1] and 7.24 in series [3]. In series [4], the hepatic extraction ratio is less than 0.3.
Turning to `CC(C)c1nnc2ccc(-c3ocnc3-c3ccc(F)c(F)c3)cn12`, the pIC50 in series [1] was 7.65; in series [3], 7.31.
Turning to `COc1ccccc1-c1nnc2ccc(-c3ocnc3-c3ccc(F)cc3)cn12`, the pIC50 in series [1] was 9.40; in series [2], 6.06; in series [3] it was 8.00.
With `CC(C)c1nnc2ccc(-c3ocnc3-c3cc(F)c(Cl)cc3F)cn12`, the pIC50 was 7.61 in series [1] and 7.22 in series [3]. In addition, the hepatic extraction ratio in series [4] is less than 0.3.
`CCCNc1nnc2ccc(-c3ocnc3-c3ccc(F)cc3)cn12` showed a negative-log IC50 (pIC50) in series [1] of 6.70.
`CC(C)c1nnc2ccc(-c3ocnc3-c3cc(F)cc(F)c3F)cn12`: the negative-log IC50 (pIC50) was 7.08 in series [1] and 6.31 in series [3]. Besides, the hepatic extraction ratio in series [4] was less than 0.3.
Turning to `Fc1ccc(-c2ncoc2-c2ccc3nnc(C4CCC4)n3c2)c(F)c1`, in series [5], the hepatic extraction ratio is greater than 0.5. Further, the pIC50 in series [1] is 8.43; in series [3], 7.40.
As to `CC(C)(C)c1nnc2ccc(-c3ocnc3-c3ccc(F)cc3)cn12`, the negative logarithm of the IC50 (pIC50) was 8.46 in series [1], 6.33 in series [2] and 7.41 in series [3]. Moreover, the hepatic extraction ratio in series [4] is less than 0.3.
For the compound `CC(C)c1nnc2ccc(-c3ocnc3-c3ccc(F)cc3F)cn12`, the hepatic extraction ratio in series [5] was greater than 0.5. Besides, the negative-log IC50 (pIC50) in series [1] was 8.34; in series [2], 6.58; in series [3] it was 8.00.
On to `CC(C)c1nnc2ccc(-c3ocnc3-c3cccc(F)c3)cn12`, for which, in series [5], the hepatic extraction ratio is greater than 0.5. Also, the pIC50 is 7.42 in series [1] and 6.87 in series [3].
On to `CC1(c2nnc3ccc(-c4ocnc4-c4ccc(F)cc4F)cn23)CCC1`, for which the values for the pIC50 in series [1], in series [2] and in series [3] were 8.96, 7.11 and 8.00, respectively.
For the compound `CC(C)c1nnc2ccc(-c3ocnc3-c3ccc(Cl)c(F)c3)cn12`, the results for the negative-log IC50 (pIC50) in series [1] and in series [3] were 7.36 and 6.58, respectively.
For `CCOc1nnc2ccc(-c3ocnc3-c3ccc(F)cc3)cn12`, in that order: 7.26 and 6.44.
On to `CC(C)c1nnc2ccc(-c3ocnc3-c3ccc(F)c(F)c3F)cn12`, for which the pIC50 in series [1] was 7.95; in series [3], 7.24.
With `CC1(c2nnc3ccc(-c4ocnc4-c4ccc(F)cc4)cn23)CCC1`, in series [5], the hepatic extraction ratio is greater than 0.5. For the same compound, the pIC50 in series [1] is 7.85; in series [3] it was 7.40.
As to `Fc1ccc(-c2ncoc2-c2ccc3nncn3c2)cc1`, the pIC50 was 7.71 in series [1] and less than 5.30 in series [3]. The hepatic extraction ratio in series [4] was less than 0.3.
Take `Fc1ccc(-c2ncoc2-c2ccc3nnc(N4CCCC4)n3c2)cc1`: the hepatic extraction ratio in series [5] was greater than 0.5. Also, the negative logarithm of the IC50 (pIC50) in series [1] was 7.81; in series [2], 6.03; in series [3], 7.28.
For the compound `c1ccc(-c2ncoc2-c2ccc3nnc(C4CC4)n3c2)cc1`, in series [5], the hepatic extraction ratio is greater than 0.5. Moreover, the results for the negative-log IC50 (pIC50) in series [1] and in series [3] were 7.33 and 6.82, respectively.
As to `CN(C)c1nnc2ccc(-c3ocnc3-c3ccc(F)cc3)cn12`, the hepatic extraction ratio in series [5] is greater than 0.5. Moreover, the negative logarithm of the IC50 (pIC50) in series [1] was 7.82; in series [3], 6.78.
With `CC1(c2nnc3ccc(-c4ocnc4-c4cc(F)ccc4F)cn23)CCC1`, the pIC50 in series [1] is 8.82; in series [3] it was 8.00.
As to `CC(C)c1nnc2ccc(-c3ocnc3-c3ccc(F)c(Br)c3)cn12`, the pIC50 is 8.10 in series [1] and 6.91 in series [3]. Further, in series [4], the hepatic extraction ratio is less than 0.3.
